Measurements from patent publication US9365562B2, “1,3 substituted azetidine PDE10 inhibitors” (Merck Sharp & Dohme Corp., priority 2011, dated 2016).

Target: human PDE10A2 (Homo sapiens (Human), UniProt Q9Y233)
Assay: PDE10 fluorescence polarization (IMAP FP) inhibition assay
Assay type: biochemical
Settings: apparent inhibition constant, FAM-labeled cAMP substrate 50 nM, room temperature
Experimental: The activity of the compounds in accordance with the present invention as PDE10 inhibitors may be readily determined without undue experimentation using a fluorescence polarization (FP) methodology that is well known in the art (Huang, W., et al., J. Biomol Screen, 2002, 7: 215).
In a typical experiment the PDE10 inhibitory activity of the compounds of the present invention was determined in accordance with the following experimental method. PDE10A2 was amplified from human fetal brain cDNA (Clontech, Mountain View, Calif.) using a forward primer corresponding to nucleotides 56-77 of human PDE10A2 (Accession No. AF127480, Genbank Identifier 4894716), containing a Kozak consensus sequence, and a reverse primer corresponding to nucleotides 2406-2413 of human PDE10A2 (Accession No. AF127480, Genbank Identifier 4894716). Amplification with Easy-A polymerase (Stratagene, La Jolla, Calif.) was 95° C. for 2 minutes followed by thirty three cycles of 95° C. for 40 seconds, 55° C. for 30 seconds, and 72° C. for 2 minutes 48 seconds. Final extension was 72° C. for 7 minutes. The PCR product was TA cloned into pcDNA3.2-TOPO (Invitrogen, Carlsbad, Calif.) according to standard protocol. AD293 cells with 70-80% confluency were transiently transfected with human PDE10A2/pcDNA3.2-TOPO using Lipofectamine 2000 according to manufacturer specifications (Invitrogen, Carlsbad, Calif.). Cells were harvested 48 hours post-transfection and lysed by sonication (setting 3, 10×5 sec pulses) in a buffer containing 20 mM HEPES, 1 mM EDTA and protease inhibitor cocktail (Roche). Lysate was collected by centrifugation at 75,000×g for 20 minutes. Supernatant containing the cytoplasmic fraction was used for evaluation of PDE10A2 activity. The fluorescence polarization assay for cyclic nucleotide phosphodiesterases was performed using an IMAP® FP kit supplied by Molecular Devices, Sunnyvale, Calif. (product # R8139). IMAP® technology has been applied previously to phosphodiesterase assays (Huang, W., et al., J. Biomol Screen, 2002, 7: 215). Assays were performed at room temperature in 384-well microtiter plates with an incubation volume of 20.2 μL. Solutions of test compounds were prepared in DMSO and serially diluted with DMSO to yield 8 μL of each of 10 solutions differing by 3-fold in concentration, at 32 serial dilutions per plate. 100% inhibition is determined using a known PDE10 inhibitor, which can be any compound that is present at 5,000 times its Ki value in the assay described as follows, such as papaverine (see Siuciak, et al. Neuropharmacology (2006) 51:386-396; Becker, et al. Behav Brain Res (2008) 186(2):155-60; Threlfell, et al., J Pharmacol Exp Ther (2009) 328(3):785-795), 2-{4-[pyridin-4-yl-1-(2,2,2-trifluoroethyl)-1H-pyrazol-3-yl]phenoxymethyl}quinoline succinic acid or 2-[4-(1-methyl-4-pyridin-4-yl-1H-pyrazol-3-yl)-phenoxymethyl]quinoline succinic acid (see Schmidt, et al. J Pharmacol Exp Ther (2008) 325:681-690; Threlfell, et al., J Pharmacol Exp Ther (2009) 328(3): 785-795). 0% of inhibition is determined by using DMSO (1% final concentrations). A Labcyte Echo 555 (Labcyte, Sunnyvale, Calif.) is used to dispense […] from each well of the titration plate to the 384 well assay plate. A solution of enzyme (1/7000 dilution from aliquots; sufficient to produce 20% substrate conversion) and a separate solution of FAM-labeled cAMP PDE from Molecular Devices (product # R7506), at a final concentration of 50 nM are made in the assay buffer (10 mM Tris HCl, pH 7.2, 10 mM MgCl2, 0.05% NaN3 0.01% Tween-20, and 1 mM DTT). The enzyme is added to the assay plates by the addition of 10 μL of enzyme solution to each well, shaken to mix and incubated at room temperature for 60 minutes. The substrate is then added to the assay plates by the addition of 10 μL of substrate solution to each well, shaken to mix, and incubated at room temperature for 60 minutes. […]

Chain of human PDE10A2 (Q9Y233 267-1055): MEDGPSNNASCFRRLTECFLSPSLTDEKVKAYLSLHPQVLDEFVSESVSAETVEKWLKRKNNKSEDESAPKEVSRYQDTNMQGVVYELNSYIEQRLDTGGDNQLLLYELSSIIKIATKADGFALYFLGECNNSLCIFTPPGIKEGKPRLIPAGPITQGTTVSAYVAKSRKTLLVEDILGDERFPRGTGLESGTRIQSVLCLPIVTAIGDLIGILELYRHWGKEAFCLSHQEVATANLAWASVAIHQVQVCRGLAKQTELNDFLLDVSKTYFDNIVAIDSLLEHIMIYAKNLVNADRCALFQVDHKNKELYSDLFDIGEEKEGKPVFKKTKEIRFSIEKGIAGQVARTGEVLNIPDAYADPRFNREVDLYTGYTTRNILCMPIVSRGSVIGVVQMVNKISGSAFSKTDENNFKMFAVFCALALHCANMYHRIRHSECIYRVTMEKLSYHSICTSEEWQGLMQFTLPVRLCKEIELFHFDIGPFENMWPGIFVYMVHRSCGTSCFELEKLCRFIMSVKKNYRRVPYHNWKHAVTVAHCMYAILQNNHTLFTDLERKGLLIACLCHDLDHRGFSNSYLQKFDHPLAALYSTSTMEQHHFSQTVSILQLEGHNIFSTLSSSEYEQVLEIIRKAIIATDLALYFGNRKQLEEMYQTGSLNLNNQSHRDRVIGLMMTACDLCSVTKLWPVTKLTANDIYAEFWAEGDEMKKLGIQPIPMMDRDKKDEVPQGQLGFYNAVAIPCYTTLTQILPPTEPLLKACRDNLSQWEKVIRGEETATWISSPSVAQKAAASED

Compound	Ki [nM]
CSc1nc(N2CC(c3nc4ccccc4n3C)C2)cc(-n2nc(C)nc2C)n1 [Example 23, 2-(1-(6-(3,5-dimethyl-1H-1,2,4-triazol-1-yl)-2-(methylthio)pyrimidin-4-yl)azetidin-3-yl)-1-methyl-1H-benzo[d]imidazole]	0.2
CCc1nc(C)nn1-c1cc(N2CC(c3nc4ccccc4n3C)C2)nc(OC)n1 [Example 64, 2-(1-(6-(5-ethyl-3-methyl-1H-1,2,4-triazol-1-yl)-2-methoxypyrimidin-4-yl)azetidin-3-yl)-1-methyl-1H-benzo[d]imidazole]	0.4
COc1nc(-c2ccc(C)cn2)cc(N2CC(c3nc4ccccc4n3C)C2)n1 [Example 96, 2-(1-(2-methoxy-6-(5-methylpyridin-2-yl)pyrimidin-4-yl)azetidin-3-yl)-1-methyl-1H-benzo[d]imidazole]	1.3
CCn1c(C2CN(c3cc(-n4nc(C)nc4C)nc(C)n3)C2)nc2ccccc21 [Example 114, 2-(1-(6-(3,5-Dimethyl-1H-1,2,4-triazol-1-yl)-2-methylpyrimidin-4-yl)azetidin-3-yl)-1-ethyl-1H-benzo[d]imidazole]	5.9
Cc1nc(N2CC(c3nc4ccccc4n3C)C2)cc(-n2ccc(C3CC3)n2)n1 [Example 13, 2-(1-(6-(3-cyclopropyl-1H-pyrazol-1-yl)-2-methylpyrimidin-4-yl)azetidin-3-yl)-1-methyl-1H-benzo[d]imidazole]	0.74
COc1ncccc1-c1cc(N2CC(c3nc4ccccc4n3C)C2)nc(C)n1 [Example 82, 2-(1-(6-(2-methoxypyridin-3-yl)-2-methylpyrimidin-4-yl)azetidin-3-yl)-1-methyl-1H-benzo[d]imidazole]	27
Cc1nc(C)n(-c2cc(N3CC(c4nc5ccccc5n4C)C3)nc(-n3ccnc3C)n2)n1 [Example 77, 2-(1-(6-(3,5-dimethyl-1H-1,2,4-triazol-1-yl)-2-(2-methyl-1H-imidazol-1-yl)pyrimidin-4-yl)azetidin-3-yl)-1-methyl-1H-benzo[d]imidazole]	0.26
Cc1nc(-c2ccccc2C(=O)O)cc(N2CC(c3nc4ccccc4n3C)C2)n1 [Example 93, 2-(2-methyl-6-(3-(1-methyl-1H-benzo[d]imidazol-2-yl)azetidin-1-yl)pyrimidin-4-yl)benzoic acid]	19
Cc1nc(N2CC(c3nc4c(C(F)(F)F)cccc4n3C)C2)cc(-n2nc(C)nc2C)n1 [Example 125, 2-(1-(6-(3,5-dimethyl-1H-1,2,4-triazol-1-yl)-2-methylpyrimidin-4-yl)azetidin-3-yl)-1-methyl-4-(trifluoromethyl)-1H-benzo[d]imidazole]	37
Cc1nc(N2CC(c3nc4ccccc4n3CCO)C2)cc(-n2nc(C)nc2C)n1 [Example 117, 2-(2-(1-(6-(3,5-dimethyl-1H-1,2,4-triazol-1-yl)-2-methylpyrimidin-4-yl)azetidin-3-yl)-1H-benzo[d]imidazol-1-yl)ethanol]	6.6
Cc1nc(N2CC(c3nc4ccccc4n3C)C2)cc(-n2cccn2)n1 [Example 3, 1-methyl-2-(1-(2-methyl-6-(1H-pyrazol-1-yl)pyrimidin-4-yl)azetidin-3-yl)-1H-benzo[d]imidazole]	2.5
Cc1nc(N2CC(c3nc4ccccc4n3CC#N)C2)cc(-n2nc(C)nc2C)n1 [Example 115, 2-(2-(1-(6-(3,5-dimethyl-1H-1,2,4-triazol-1-yl)-2-methylpyrimidin-4-yl)azetidin-3-yl)-1H-benzo[d]imidazol-1-yl)acetonitrile]	14
Cc1nc(N2CC(c3nc4cccc(F)c4n3C)C2)cc(-n2nc(C)nc2C)n1 [Example 123, 2-(1-(6-(3,5-dimethyl-1H-1,2,4-triazol-1-yl)-2-methylpyrimidin-4-yl)azetidin-3-yl)-7-fluoro-1-methyl-1H-benzo[d]imidazole]	7.1
Cc1nc(N2CC(c3nc4ccccc4n3C)C2)cc(-n2nc(C)nc2C2CCCCC2)n1 [Example 45, 2-(1-(6-(5-cyclohexyl-3-methyl-1H-1,2,4-triazol-1-yl)-2-methylpyrimidin-4-yl)azetidin-3-yl)-1-methyl-1H-benzo[d]imidazole]	2
Cc1nc(C)n(-c2cc(N3CC(c4nc5ccccc5n4C)C3)nc(C(F)(F)F)n2)n1 [Example 60, 2-{1-[6-(3,5-dimethyl-1H-1,2,4-triazol-1-yl)-2-(trifluoromethyl)pyrimidin-4-yl]azetidin-3-yl}-1-methyl-1H-benzimidazole]	1.1
Cc1nc(C)n(-c2cc(N3CC(c4nc5ccccc5n4C)C3)nc(OCc3ccon3)n2)n1 [Example 74, 3-(((4-(3,5-dimethyl-1H-1,2,4-triazol-1-yl)-6-(3-(1-methyl-1H-benzo[d]imidazol-2-yl)azetidin-1-yl)pyrimidin-2-yl)oxy)methyl)isoxazole]	0.49
Cc1nc(N2CC(c3nc4ccc(C(F)(F)F)cc4[nH]3)C2)cc(-n2nc(C)nc2C)n1 [Example 113, 2-(1-(6-(3,5-dimethyl-1H-1,2,4-triazol-1-yl)-2-methylpyrimidin-4-yl)azetidin-3-yl)-6-(trifluoromethyl)-1H-benzo[d]imidazole]	> 75
Cc1nc(-c2ccc(C#N)cn2)cc(N2CC(c3nc4ccccc4n3C)C2)n1 [Example 103, 6-(2-methyl-6-(3-(1-methyl-1H-benzo[d]imidazol-2-yl)azetidin-1-yl)pyrimidin-4-yl)nicotinonitrile]	2.4
Cc1ccc(-c2cc(N3CC(c4nc5ccccc5n4C)C3)nc(C(F)(F)F)n2)nc1 [Example 97, 1-methyl-2-(1-(6-(5-methylpyridin-2-yl)-2-(trifluoromethyl)pyrimidin-4-yl)azetidin-3-yl)-1H-benzo[d]imidazole]	0.9
Cc1nc(N2CC(c3nc4ccccc4n3C)C2)cc(-n2cc(C)c(C)n2)n1 [Example 8, 2-(1-(6-(3,4-dimethyl-1H-pyrazol-1-yl)-2-methylpyrimidin-4-yl)azetidin-3-yl)-1-methyl-1H-benzo[d]imidazole]	0.63
Cc1nc(-c2ccccc2)cc(N2CC(c3nc4ccccc4n3C)C2)n1 [Example 88, 1-methyl-2-(1-(2-methyl-6-phenylpyrimidin-4-yl)azetidin-3-yl)-1H-benzo[d]imidazole]	63
Cc1nc(N2CC(c3nc4ccccc4n3C)C2)cc(-n2nncc2C)n1 [Example 27, 1-methyl-2-(1-(2-methyl-6-(5-methyl-1H-1,2,3-triazol-1-yl)pyrimidin-4-yl)azetidin-3-yl)-1H-benzo[d]imidazole]	8.5
COc1cnn(-c2cc(N3CC(c4nc5ccccc5n4C)C3)nc(C)n2)c1 [Example 18, 2-(1-(6-(4-methoxy-1H-pyrazol-1-yl)-2-methylpyrimidin-4-yl)azetidin-3-yl)-1-methyl-1H-benzo[d]imidazole]	3.2
CCOC(=O)Cc1nc(C)nn1-c1cc(N2CC(c3nc4ccccc4n3C)C2)nc(C)n1 [Example 44, ethyl 2-(3-methyl-1-(2-methyl-6-(3-(1-methyl-1 benzo[d]imidazol-2-yl)azetidin-1-yl)pyrimidin-4-yl)-1H-1,2,4-triazol-5-yl)acetate]	2.6
Cc1nc(N2CC(c3nc4ccccc4n3CCF)C2)cc(-n2nc(C)nc2C)n1 [Example 116, 2-(1-(6-(3,5-dimethyl-1H-1,2,4-triazol-1-yl)-2-methylpyrimidin-4-yl)azetidin-3-yl)-1-(2-fluoroethyl)-1H-benzo[d]imidazole]	6.2
